Test results as given in patent US5723501A, “Pharmaceutical compositions containing 3-IODO-1,2-propanediol having mucolytic activity” (Carter-Wallace, Inc., priority 1996, dated 1998).
Where “and” joins values, the source holds several entries; their conditions need not be identical. Equal values may be shown once. Entries after “also recorded” stand apart in the source; their conditions may differ.

Experiments:
[1] = system: tracheal secretion in mice; details: cited from earlier work
[2] = system: tracheal secretion of phenol red in mice; experiment: Tracheal secretion of phenol red in male mice (Engler and Szelenyi method); format: in vivo; details: for ED50: Mus musculus, po, 0.5 h, read-out: ED50 (dose stimulating tracheal secretion of phenol red by 50% over the control); for ED50 / effect on tracheal secretion of phenol red, dose dependence / ED50 (dose stimulating tracheal secretion of phenol red by 50% over the control): 30 minutes; for ED50 / ED50 (dose stimulating tracheal secretion of phenol red by 50% over the control): male mice; for Phenol Red Secretion, Treated: 30 min before phenol red i.p., * P<0.05 vs control; for Phenol Red Secretion, Treated / % Change in phenol red secretion: mean ± SFM; for % Change in phenol red secretion: vs control
From the text: Adult male mice weighing 14-40 g were used in this investigation. Animals were acclimatized to the laboratory environment for a minimum of five days prior to use in the experimental procedures. Housing was provided in environmentally controlled quarters in which temperature, humidity and ventilation were regulated based on the needs of the species. Husbandry practices and veterinary care were in accordance with the Guide for Care and Use of Laboratory Animals (NIH Publication No. 85-23). Tracheal secretion in mice, expressed by the amount of phenol red dye secreted into the lumen of the trachea was measured according to the method of Engler and Szelenyi. Male mice were randomly placed into appropriate treatment groups. On each experiment day, one to four mice in a group received orally either vehicle (distilled water or 1% acacia, 0.1 mL/10 g body weight) or a drug. Each drug was tested at a minimum of three different dose levels. Each drug dosage was tested in at least six animals. Drugs were administered orally (0.1 mL/10 g body weight) 30 minutes prior to intraperitoneal injection of phenol red (500 mg/kg: 5% solution in physiological saline, 0.1 mL/10 g body weight). Thirty minutes after phenol red injection the animals were sacrificed by exposure to CO2. The whole trachea was carefully excised and washed in 1.0 mL physiological saline for a period of 30 minutes. Subsequently, 0.1 mL of 1 M NaOH was added to the tracheal washings to stabilize the pH of the lavage fluid. The amount of phenol red was measured photometrically at […] in a Beckman Model 25 spectrophotometer. The amount of phenol red secreted in the tracheal lumen, expressed in μg/10 g body weight/hr, was determined by the formula of Graziani and Cazzulani: [formula] where: S=phenol red secreted per 10 g of body weight per hour (μg/10 g/hr). s=intensity of emission of the phenol red contained in 1.0 mL of tracheal lavage as determined from the standard curve of phenol red (0.5, 1, 5, and 10 μg/mL). V=volume of the tracheal lavage (1.0 mL). W=body weight of the mice expressed in grams. The results were expressed as mean ±S.F.M. Statistical significance was evaluated using the t-test for independent means, where P<0.05 is considered to be significant as compared to the appropriate control. The % increase in tracheal secretion of phenol red by each dose of a drug was determined by using the following formula: [formula] T=tracheal secretion of phenol red (μg/10 g/hr) in treated mice each day. C=tracheal secretion of phenol red (μg/10 g/hr) in untreated mice each day. The line of best fit was calculated from the dose response curve of each drug and the ED50 (mg/kg), i.e. the dose stimulating tracheal secretion of phenol red by 50% over the control level, was determined and 95% confidence limits were also calculated.

[3] = system: mechanical or electrical stimulation in the cat; details: cited from earlier work
[4] = system: citric acid (aerosol)-induced coughing responses in guinea pigs; details: cited from earlier work

Row | Compound | ED50 ([2]; p.o.) [mg/kg] | Phenol Red Secretion, Treated ([2]; oral dose 30.0 mg/kg) [μg/10 g/hr] | % Change in phenol red secretion ([2]; oral dose 30.0 mg/kg) [%] | Phenol Red Secretion, Treated ([2]; oral dose 100.0 mg/kg) [μg/10 g/hr] | % Change in phenol red secretion ([2]; oral dose 100.0 mg/kg) [%] | effect on tracheal secretion of phenol red, dose dependence ([2]; p.o., mice) | oral ED50 reported earlier by others [1] | Phenol Red Secretion, Treated ([2]; oral dose 0.3 mg/kg) [μg/10 g/hr] | % Change in phenol red secretion ([2]; oral dose 0.3 mg/kg) [%] | Phenol Red Secretion, Treated ([2]; oral dose 1.0 mg/kg) [μg/10 g/hr] | % Change in phenol red secretion ([2]; oral dose 1.0 mg/kg) [%] | stimulation of tracheal secretion of phenol red ([2]; oral, mice) | Phenol Red Secretion, Treated ([2]; oral dose 10.0 mg/kg) [μg/10 g/hr] | % Change in phenol red secretion ([2]; oral dose 10.0 mg/kg) [%] | Phenol Red Secretion, Treated ([2]; oral dose 50.0 mg/kg) [μg/10 g/hr] | % Change in phenol red secretion ([2]; oral dose 50.0 mg/kg) [%] | Phenol Red Secretion, Treated ([2]; oral dose 200.0 mg/kg) [μg/10 g/hr] | % Change in phenol red secretion ([2]; oral dose 200.0 mg/kg) [%] | also measured
1 | CN(Cc1cc(Br)cc(Br)c1N)C1CCCCC1 [Bromhexine] | > 100 | 0.67 ± 0.10 | 0 ± 0 | 0.90 ± 0.10 | 40.6 ± 17.0 | weak to moderate nondose-related effect |  |  |  |  |  |  |  |  |  |  |  |  | bronchosecretogogue activity reported by others ([1]; 40 mg/kg, p.o., mice): little or no bronchosecretogogue activity; significant increase in phenol red tracheal secretion ([2]; 3 or 30 mg/kg, p.o.): not at 3 or 30 mg/kg; increase in phenol red tracheal secretion ([2]; only at 100 mg/kg, p.o.): significant increase; Phenol Red Secretion, Treated ([2]; oral dose 3.0 mg/kg): 1.20 ± 0.13 μg/10 g/hr; % Change in phenol red secretion ([2]; oral dose 3.0 mg/kg): 20.9 ± 12.9%
2 | CC(C)(C)NCC(O)c1ccc(O)c(CO)c1 (stereo not drawn) [Albuterol] | 0.18 |  |  |  |  | dose-dependent increase | about 4 mg/kg | 1.30 ± 0.16 | 78.4 ± 22.9 | 1.60 ± 0.09 | 118.6 ± 11.6 | stimulated tracheal secretion of phenol red |  |  |  |  |  |  | Phenol Red Secretion, Treated ([2]; oral dose 0.1 mg/kg): 0.85 ± 0.08 μg/10 g/hr; % Change in phenol red secretion ([2]; oral dose 0.1 mg/kg): 20.5 ± 10.6%
3 | CC(=O)N[C@@H](CS)C(=O)O [N-acetylcysteine] | 61.8 |  |  |  |  | dose-dependent increase |  |  |  |  |  |  | 0.66 ± 0.06 | 2.3 ± 13.2 | 1.00 ± 0.08 | 51.6 ± 10.6 | 1.30 ± 0.12 | 75.7 ± 1.5 | 
4 | [I-].[K+] [Potassium Iodide, potassium iodide] |  |  |  | 1.47 ± 0.15 | 45.8 ± 14.2 | dose-dependent increase | ~4000 mg/kg |  |  |  |  | stimulated tracheal secretion of phenol red |  |  | 0.67 ± 0.07 | 5.1 ± 11.2 | 0.96 ± 0.10 | 49.1 ± 12.2 | ED50 (dose stimulating tracheal secretion of phenol red by 50% over the control) ([2]; p.o.): ~ 200 mg/kg; ED50 (dose stimulating tracheal secretion of phenol red by 50% over the control) ([2]; p.o., listed as potassium iodide): ~ 200 mg/kg and 200 mg/kg
5 | OCC(O)CI (stereo not drawn) [3-iodo-1,2-propanediol] | 0.75 | 1.56 ± 0.23 | 110.45 ± 31.5 |  |  | dose-dependent increase; also recorded: dose-dependent stimulation |  | 1.02 ± 0.06 | 37.5 ± 8.01 | 1.16 ± 0.13 | 56.55 ± 17.83 | stimulates tracheal secretion of phenol red; also recorded: effective in stimulating tracheal secretion of phenol red | 1.32 ± 0.16 | 77.36 ± 21.67 |  |  |  |  | antitussive effect [3]: antitussive effect; antitussive effect [4]: antitussive effect; effectiveness relative to iodinated glycerol in stimulating tracheal secretion of phenol red ([2]; oral, mice, times as effective as iodinated glycerol): about 90 times
